Laboratory results: patent US6482851B1, “Synthesis of dysidiolide and uses thereof” (Sloan-Kettering Institute for Cancer Research, priority 1998, dated 2002)

What was measured:
[1] = tested on: Cdk6; assay: in vitro kinase assay of Cdk6 immunoprecipitated from treated TSU-Pr1 cells; assay type: cell-based, human; conditions: 3.33 μM, TSU-Pr1, as early as 3 hours in drug
Experimental: (§1) TSU-Pr1 cells were treated for 24 hours with either DMSO or 3.33 μM dysidiolide. Cells were pulse-labeled for 30 min with bromodeoxyuridine (BrdU) and analyzed by FACS. The R@ window contains BRDU-positive, S-phase cells. Consistent with the proposed inhibitory effect of dysidiolide on the positive cell cycle regulator Cdc25. the drug inhibited the activity of cyclin-dependent kinases (Cdk). Cdk4, 6 and 2 were immunoprecipitated from DMSO- or drug-treated TSU-Pr1 cell cultures. Activity was examined in vitro kinase assays. The activity of the three Cdks was inhibited in drug-treated cells, as early as 3 hours in drug.
(§2) In vitro kinase assays of Cdk. TSU-Pr1 cells were treated with 3.33 μM dysidiolide for 0-24 hours. Samples were collected at various times and the activity of Cdk4, 6 and 2 was determined. Cdks were immunoprecipitated with specific antibodies and incubated with radiolabeled ATP plus either histH1 (for Cdk2) or GST-Rb (for Cdk4 and 6). Reactions were separated on SDS-polyacrylamide gels and the amount of phosphorylated product was determined by radiometric analysis.

[2] = tested on: Cdk4; assay: Cdk4 kinase activity on immunoprecipitates from treated MCF7 cells; assay type: cell-based, human; conditions: 50 μM, 24 hr
Experimental: (§3) Effect of a 24 hr treatment with 50 μM dysidiolide on the kinase activity of Cdk4, Cdk2 and Cdc2. Cdk were immunoprecipitated from MCF7 cell lysates obtained from cultures treated or not with dysidiolide for 24 hr. Histone H1 was used as substrate for Cdk2 and Cdc2, whereas GST-Rb was the substrate for Cdk4.
(§4) To further characterize the effects of dysidiolide on cell cycle control, experiments were conducted at the molecular level. As Cdc25s (A, B and C) are positive regulators of cyclin-dependent kinases (Cdk) (reviewed in Draetta and Eckstein, BBA 1332: M53-M63, 1997) inhibition of Cdc25 is expected to result in inhibition of Cdk activity. MCF7 cells were treated with 2 or 10 μM dysidiolide or with DMSO (controls) for 2 or 4 hr. Cell extracts were used to measure the steady-state levels of Cdc25 A and C, and Cdk activity. […] However, a decrease in the levels of Cdc25 C (but not on A) was clearly noticeable (FIG. 9B). In the next experiment MCF7 cells were treated for 24 hr with 50 μM dysidiolide or with DMSO (control) for 24 hr. […] On the other hand, at these more stringent conditions, inhibition of Cdk2, Cdk4 and Cdc2 protein kinase activities was observed (FIG. 10A and FIG. 10B).

[3] = tested on: PC3, DU145 and MCF7 cells; assay: cell cycle distribution by DNA content histograms (FACS); assay type: cell-based, human
Experimental: Cells with 2n to 4n DNA content were distributed on a DNA histogram and estimations for the percentages of cells in G1(2n), S(2n<X<4N) and G2/M (4n) were calculated using Becton-Dickinson FACS analysis software.
(§5) A 20 mM stock solution of dysidiolide was prepared in dimethylsulfoxide (DMSO) and a pilot experiment was carried out to measure the effects of the drug on the viability (Trypan blue exclusion) and flow cytometric parameters of four human cancer cell lines: the prostate lines TSU-Pr1, PC3 and DU145, and the breast line, MCF7. Cultures were treated with 0, 2, 10 and 50 μM dysidiolide for 24 hr. Dysidiolide was cytotoxic to the four lines as evidenced by the loss of Trypan blue exclusion capability and by the appearance of sub-G1 fraction on flow cytometric (FACS) analysis (FIGS. 3 and 4A-D). […] (At 50 μM dysidiolide, the level of cell death was too high in TSU-Pr1 cells to fit a valid histogram (FIG. 5A)). These cell cycle changes are consistent with arrest prior to completion of the replicative (S) phase, or with cell death occurring preferentially in cells with a 4n DNA content (G2/M population).

[4] = tested on: TSU-Pr1, PC3, DU145 and MCF7 human cancer cell lines; assay: viability (Trypan blue exclusion) and FACS sub-G1 of four human cancer cell lines; assay type: cell-based
Experimental: Effect of dysidiolide on the viability of the human cancer cell lines (A) TSU-Pr1, (B) MCF7, (C) PC3, and (D) DU145. Cultures were untreated or treated with 2, 10 or 50 μM dysidiolide for 24 hr. All cultures received a final DMSO concentration of 0.25%. Cells were harvested by trypsinization and viability was determined by Trypan blue exclusion.
FACS analysis of (A) TSU-Pr1, (B) PC3, (C) DU145, and (D) MCF7, untreated or treated with 2, 10 or 50 μM dysidiolide for 24 hr. All cultures received a final DMSO concentration of 0.25%.
Cells containing fragmented DNA content were detected as the M1 (subG1) region on DNA content plots.
as §5, with “These cell cycle changes are consistent with arrest prior to completion of the replicative (S) phase, or with cell death occurring preferentially in cells with a 4n DNA content (G2/M population).” left out

[5] = tested on: Cdc25 C; assay: steady-state levels of Cdc25 C in MCF7 cell lysates; assay type: cell-based, human
Experimental: Effect of dysidiolide on the activity of Cdk2 and on the steady-state levels of Cdc25A and Cdc25C. MCF7 cells were treated for 2 or 4 hr with 0, 2 or 10 μM dysidiolide. A) The kinase activity of Cdk2 was assayed on immunoprecipitates using histone H1 as exogenous substrate. B) The steady-state levels of Cdc25 A and C were analyzed in total cell lysates with specific antibodies (Santa Cruz Biotechnology's sc097 and sc327 antibodies were used for detection of Cdc25 A and C, respectively).
(A) Effect of 50 μM dysidiolide on the steady-state levels of Cdc25 A and C, and of other cell cycle regulators in MCF7 cells after a 24 hr treatment.
To further characterize the effects of dysidiolide on cell cycle control, experiments were conducted at the molecular level. As Cdc25s (A, B and C) are positive regulators of cyclin-dependent kinases (Cdk) (reviewed in Draetta and Eckstein, BBA 1332: M53-M63, 1997) inhibition of Cdc25 is expected to result in inhibition of Cdk activity. MCF7 cells were treated with 2 or 10 μM dysidiolide or with DMSO (controls) for 2 or 4 hr. Cell extracts were used to measure the steady-state levels of Cdc25 A and C, and Cdk activity. […] However, a decrease in the levels of Cdc25 C (but not on A) was clearly noticeable (FIG. 9B). In the next experiment MCF7 cells were treated for 24 hr with 50 μM dysidiolide or with DMSO (control) for 24 hr. […]

[6] = tested on: human tumor cell lines; assay: anchorage-dependent growth of human tumor cell lines; assay type: cell-based
Experimental: (B) Effect of dysidiolide on anchorage-dependent growth of human tumor cell lines. Cells were grown in multiwell plates and treated with either various drug concentrations or with dimethylsulfoxide (vehicle control). Cell number was determined and the inhibitory concentration to induce 50% growth inhibition (IC50) was determined. (C) Furthermore, dysidiolide inhibited the growth of immortalized human mammary epithelial cells transformed by either the oncogene ras, the receptor tyrosine kinase Neu, or both agents. Again, the IC50 for growth inhibition was in the low μM range (IC50 −3 μM dysidiolide).
In summary, the synthetic dysidiolide is an active drug in human tumor cell lines. It induces cytotoxicity, as detected by loss of Trypan blue exclusion and by the appearance of cells containing fragmented DNA via FACS analysis. […] Dysidiolide has the potential to be a cell cycle-targeted drug, which could be used alone or in combination with other treatments. In this regard, it may sensitize cells for DNA damaging treatments (i.e. act as a radiosensitizer). […] Cell lines derived from tumors of diverse origins were affected similarly.

[7] = tested on: Cdc2; assay: Cdc2 kinase activity on immunoprecipitates from treated MCF7 cells; assay type: cell-based, human; conditions: 50 μM, 24 hr
Experimental: as §3, §4

[8] = tested on: lung carcinoma and murine leukemia cell lines; conditions: cited from earlier work
[9] = tested on: Cdk4; assay: in vitro kinase assay of Cdk4 immunoprecipitated from treated TSU-Pr1 cells; assay type: cell-based, human; conditions: 3.33 μM, TSU-Pr1, as early as 3 hours in drug
Experimental: as §1, §2

Compound: C=C(C)CCC[C@@]1(C)CCC[C@H]2C1=CC[C@H](C)[C@]2(C)C[C@H](O)C1=CC(=O)O[C@@H]1O (racemic) [dysidiolide]
- Cdk6 activity [1]: inhibited
- Cdk4 protein kinase activity [2]: inhibition
- cell cycle distribution ([3]; MCF7 breast cancer cell line): loss of the G2/M peak and accumulation of cells in G1
- cell cycle distribution ([3]; PC3, DU145 and MCF7 cells at higher doses of drug, 24 hr): loss of a G2/M (4 n peak)
- cytotoxicity (loss of Trypan blue exclusion, sub-G1 fraction) ([4]; 2, 10 and 50 μM, 24 hr): cytotoxic
- growth arrest ([4]; 2-50 μM, within 24 hours, four human cancer cell lines): growth arrest
- levels of Cdc25 C ([5]; 50 μM, 24 hr): reduced
- levels of Cdc25 C ([5]; 2 or 10 μM, 2 or 4 hr): decrease
- cross-resistance with vinblastine or doxorubicin (MDR phenotype) ([6]; MCF7 vs. MCF/Adr and CEM vs. CEM/VBL100): no cross-resistance
- IC50 ([6]; a number of human tumor cancer lines, read-out: IC50 for growth inhibition of human tumor cancer lines): 0.5 to 4.5 µM
- Cdc2 protein kinase activity [7]: inhibition
- growth of lung carcinoma and murine leukemia cell lines [8]: inhibits growth
- Cdk4 activity [9]: inhibited
